We go through 9 compounds from ChEMBL document CHEMBL4813961, “Antiviral Bafilomycins from a Feces-Inhabiting Streptomyces sp” (J Nat Prod, 2021).

Series [1] relates to Influenza A virus. Kind of series: Antiviral activity against Influenza A virus (A/Puerto Rico/8/1934(H1N1)) infected in MDCK cells pre-treated with virus for 30 mins followed by cell infection for 1 hr by MTT assay. Type of series: functional, organism-based. In general terms: Tetrazolium assays rely on reduction of a dye to a coloured formazan, in cell work by metabolically active cells.

Series [2] is described as follows: Cytotoxicity against dog MDCK cells incubated for 48 hrs by MTT assay. Format: cell-based, Canis lupus familiaris.
Series [3] relates to Influenza A virus. Kind of series: Antiviral activity against Influenza A virus (A/Puerto Rico/8/1934(H1N1)) infected in MDCK cells incubated for 48 hrs by MTT assay. Type of series: functional, organism-based.
The test system of the next series is MDCK. Kind of series: Inhibition of V-ATPase in dog MDCK cells assessed as decrease in fluorescence intensity at 5 uM incubated for 20 mins by acridine orange staining-based fluorescence quenching method (reference value: 100%). Type of series: cell-based. As to conditions: Canis lupus familiaris.
Series [4] deals with Influenza A virus. Kind of series: Antiviral activity against Influenza A virus (A/Puerto Rico/8/34(H1N1)) infected in MDCK cells assessed as reduction in M1 mRNA level at 1 ng/ml pre-treated with virus for 30 mins followed by cell infection for 1 hr and measured after 24 hrs post infection by SYBR green dye-based qRT-PCR analysis. The note with it: A/Puerto Rico/8/1934(H1N1), time 1470.0 min. Type of series: functional, organism-based.

For series [5], the system named is SARS-CoV-2. Kind of series: Antiviral activity against SARS-CoV-2 nCoV-2019 BetaCoV/Wuhan/WIV04/2019 infected in Vero E6 cells assessed as S gene expression preincubated with cells for 1 hr followed by viral addition for 1 hr and measured at 24 hrs post infection by qRT-PCR method. Format: functional, organism-based. As to conditions: Severe acute respiratory syndrome coronavirus 2, nCoV-2019 BetaCoV/Wuhan/WIV04/2019, Vero C1008. Background: Quantitative PCR measures a nucleic acid by following its amplification.

Series [6] deals with Influenza A virus. Briefly: Antiviral activity against Influenza A virus (A/Puerto Rico/8/34(H1N1)) infected in MDCK cells assessed as reduction in NP expression level at 0.5 to 1 ng/ml pre-treated with virus for 30 mins followed by cell infection for 1 hr and measured after 24 hrs post infection by indirect immunofluorescence assay. As to conditions: A/Puerto Rico/8/1934(H1N1), dose 0.5-1 ng/ml, time 1470.0 min. Format: functional, organism-based.

For series [7], the system named is SARS-CoV-2. Briefly: Antiviral activity against SARS-CoV-2 nCoV-2019 BetaCoV/Wuhan/WIV04/2019 infected in Vero E6 cells assessed as reduction in NP expression at 0.005 to 0.5 ug/ml preincubated with cells for 1 hr followed by viral addition for 1 hr and measured at 24 hrs post infection by indirect immunofluorescence assay. The note with it: Severe acute respiratory syndrome coronavirus 2, dose 0.005-0.5 µg/ml, time 26.0 hrs. Type of series: functional, organism-based.

Series [8] has as its system Influenza A virus. Kind of series: Antiviral activity against Influenza A virus (A/Puerto Rico/8/34(H1N1)) infected in MDCK cells assessed as reduction in HA mRNA level at 1 ng/ml pre-treated with virus for 30 mins followed by cell infection for 1 hr and measured after 24 hrs post infection by SYBR green dye-based qRT-PCR analysis. Format: functional, organism-based. As to conditions: A/Puerto Rico/8/1934(H1N1), time 1470.0 min.

Series [9] has as its system SARS-CoV-2. Kind of series: Antiviral activity against SARS-CoV-2 nCoV-2019 BetaCoV/Wuhan/WIV04/2019 infected in Vero E6 cells assessed as S gene expression preincubated with virus for 30 mins followed by cell infection for 1 hr and measured at 24 hrs post infection by qRT-PCR method. Format: functional, organism-based. As to conditions: Severe acute respiratory syndrome coronavirus 2, nCoV-2019 BetaCoV/Wuhan/WIV04/2019, Vero C1008.

Active and inactive are the calls of the source. The calls are words filed in the database; no cut-off is given here.

What is called IC50 is the concentration that gives 50% inhibition. One may read the CC50 as the concentration giving 50% cytotoxicity. Regarding `CO/C1=C/C(C)=C/[C@@H](C)[C@H](O)[C@@H](C)C/C(C)=C/C=C/[C@H](OC)[C@@H]([C@@H](C)[C@@H](O)[C@H](C)C(=O)/C=C/C(C)=C/C(C)C)OC1=O`, the results for the IC50 in the series on Influenza A virus [1] and in the series on Influenza A virus [3] were 2.13 nM and 460 nM, respectively. Also, the CC50 at 48 h in [2] was 3100 nM. Further, the Flu intensity in the series on MDCK worked out at 93.5%.
For the compound `CO/C1=C/C(C)=C/[C@@H](C)[C@H](O)[C@@H](C)C/C(C)=C/C=C/[C@H](OC)[C@@H]([C@@H](C)[C@@H](O)[C@H](C)[C@]2(O)C[C@H](OC)[C@@H](C)[C@H](C(C)C)O2)OC1=O`, the figures for the IC50 in the series on Influenza A virus [1] and with Influenza A virus [3] were 0.65 nM and 140 nM, respectively. Moreover, the midpoint of cytotoxicity in series [2], the CC50 at 48 h, lay at 190 nM.
On to `CO/C1=C/C(C)=C/[C@@H](C)[C@H](O)[C@@H](C)C/C(C)=C/C=C/[C@H](OC)[C@@H]([C@@H](C)[C@@H](O)[C@H](C)C(=O)/C=C/[C@H](C)[C@H](O)C(C)C)OC1=O`, for which the IC50 with Influenza A virus [1] was 0.1 nM; with Influenza A virus [3], 30 nM. The compound also displayed a CC50 at 48 h in [2] of 910 nM. Besides, in the series with MDCK, the Flu intensity turned out to be 82.7%.
`CO/C1=C/C(C)=C/[C@@H](C)[C@H](O)[C@@H](C)C/C(C)=C/C=C/[C@H](OC)[C@@H]([C@@H](C)[C@@H](O)[C@H](C)[C@]2(OC)C[C@H](OC(=O)/C=C/C(=O)NC3=C(O)CCC3=O)[C@@H](C)[C@H](C(C)C)O2)OC1=O`: the result in the series on Influenza A virus [4], in the series with Influenza A virus [6], in the series with SARS-CoV-2 [7] and in the series on Influenza A virus [8] was Active. In addition, the IC50 was determined as 5.11 nM in the series with SARS-CoV-2 [5], 0.1 nM in the series with Influenza A virus [1], 50 nM in the series on Influenza A virus [3] and 8.32 nM in the series on SARS-CoV-2 [9]. Besides, the CC50 at 48 h in [2] is 240 nM. Besides, in the series on MDCK, the Flu intensity came out at 73.6%.
On to `CO/C1=C/C(C)=C/[C@@H](C)[C@H](O)[C@@H](C)C/C(C)=C/C=C/[C@H](OC)[C@@H]([C@@H](C)[C@@H](O)[C@H](C)[C@]2(OC)C[C@H](OC)[C@@H](C)[C@H](C(C)C)O2)OC1=O`, for which the IC50 in the series on Influenza A virus [1] came to 0.18 nM; in the series with Influenza A virus [3], 260 nM. The same compound registered a CC50 at 48 h in series [2] of 1290 nM.
For `CO/C1=C/C(C)=C/[C@@H](C)[C@H](O)[C@@H](C)C/C(C)=C/C=C/[C@H](OC)[C@@H]([C@@H](C)[C@@H](O)[C@H](C)[C@]2(OC)C[C@H](O)[C@@H](C)[C@H](C(C)C)O2)OC1=O`, the concentration for half-maximal inhibition (IC50) turned out to be 0.11 nM in the series with Influenza A virus [1] and 170 nM with Influenza A virus [3]. Further, the midpoint of cytotoxicity in series [2], the CC50 at 48 h, lay at 1710 nM. Moreover, in the series with MDCK, the Flu intensity came to 88.7%.
Take `CO/C1=C\C(C)=C\[C@@H](C)[C@@H](O)[C@@H](C)C/C(C)=C/C=C/[C@H](OC)[C@@H]([C@@H](C)[C@@H](O)[C@H](C)[C@@]2(O)C[C@@H](O)[C@H](C)[C@@H](C(C)C)O2)OC1=O` [BAFILOMYCIN A1]: the IC50 was 0.06 nM with Influenza A virus [1] and 580 nM in the series on Influenza A virus [3]. This compound also registered a CC50 at 48 h in [2] of 1410 nM. Moreover, the Flu intensity with MDCK stood at 85.3%.
As to `CCOC(=O)c1c(CSc2ccccc2)n(C)c2cc(Br)c(O)c(CN(C)C)c12` [UMIFENOVIR], the IC50 came to 400 nM in the series on Influenza A virus [1] and 460 nM in the series with Influenza A virus [3]. In series [2], this compound had a CC50 at 48 h of 46400 nM.
In the case of `CO/C1=C/C(C)=C/[C@@H](C)[C@H](O)[C@@H](C)C/C(C)=C/C=C/[C@H](OC)[C@@H]([C@@H](C)[C@@H](O)[C@H](C)[C@]2(O)C[C@H](OC(=O)/C=C/C(=O)NC3=C(O)CCC3=O)[C@@H](C)[C@H](C(C)C)O2)OC1=O`, the outcome in the series on Influenza A virus [4], in the series with Influenza A virus [6] and in the series on Influenza A virus [8] was Active. Moreover, the IC50 was 0.17 nM in the series with Influenza A virus [1] and 100 nM with Influenza A virus [3]. In [2], this compound gave a CC50 at 48 h of 1310 nM. Also, the Flu intensity in the series with MDCK was 78.4%.
